Test results from patent publication US20180250260A1, “METHODS FOR TREATING CANCER” (BOSTON BIOMEDICAL, INC., priority 2015, published 2018).

Tests used:
[1] = tested on: p-Stat3; assay: Cancer stemness biomarker immunofluorescence in cancer xenograft tumors: p-Stat3; format: in vivo, mouse xenograft; conditions: alone; cancer xenograft tumor model, FIG. 6
Protocol: (§1) The effects of 2-acetylnaphtho[2,3-b]furan-4,9-dione, a compound of formula (I), on cancer stem cell markers was examined in cancer xenograft models with and without irinotecan. Human cancer cells were subcutaneously implanted into the right flank of 5-7 weeks old female athymic nude mice. When tumor size reached 200 mm^3, animals were treated with 2-acetylnaphtho[2,3-b]furan-4,9-dione, irinotecan, or a combination of 2-acetylnaphtho[2,3-b]furan-4,9-dione and irinotecan. Tumors were harvested after first dosing.
(§2) The harvested tissues were fixed in 3.7% neutral buffered formaldehyde at 4° C. for overnight. The paraffin was embedded, cut to about 5 microns, and affixed onto positively-charged slides. After being baked and de-paraffinized, the slides with tumor or control tissues were incubated in 10 mM Sodium Citrate (pH 6.0) for 10 minutes. After antigen retrieval, slides were probed with primary antibodies P-STAT3 (rabbit, Cell Signaling, 1:100), 13-Catenine (mouse, Santa Cruz, 1:400) at 4° C. overnight, and then Alexa Fluor fluorescent dyes-conjugated secondary antibodies (1:500, Invitrogen). After mounting, the slides with ProLong mounting medium with DAPI (Invitrogen) were examined under a Zeiss fluorescence microscope with 20× objective, and analyzed with Zen software.

[2] = tested on: β-catenin; assay: Cancer stemness biomarker immunofluorescence in cancer xenograft tumors: β-catenin; format: in vivo; conditions: alone; cancer xenograft tumor model, FIG. 6
Protocol: as §1, §2

Question: Which results are given for CCc1c2c(nc3ccc(OC(=O)N4CCC(N5CCCCC5)CC4)cc13)-c1cc3c(c(=O)n1C2)COC(=O)[C@]3(O)CC [irinotecan, reference compound]?
Answer: staining for stem cell marker p-Stat3 [1]: enhanced staining; staining for stem cell marker β-catenin [2]: enhanced staining
